In article PMC4412152, “Human olfactory receptor responses to odorants” (Scientific Data, 2015):
Changes are numbered by the printed parent chain.

Columns and labels:
Assay in all cases: CRE-luciferase cAMP reporter (Dual-Glo), Hana3A cells
Assay type in all cases: cell-based
OR4F17 = molecular target: T1, OR4F17 (Homo sapiens, UniProt Q8NGA8)
T1 construct: full-length ORF with N-terminal Rho tag, pCI, Hana3A cells with RTP1S
T1 sequence (Q8NGA8 1-305): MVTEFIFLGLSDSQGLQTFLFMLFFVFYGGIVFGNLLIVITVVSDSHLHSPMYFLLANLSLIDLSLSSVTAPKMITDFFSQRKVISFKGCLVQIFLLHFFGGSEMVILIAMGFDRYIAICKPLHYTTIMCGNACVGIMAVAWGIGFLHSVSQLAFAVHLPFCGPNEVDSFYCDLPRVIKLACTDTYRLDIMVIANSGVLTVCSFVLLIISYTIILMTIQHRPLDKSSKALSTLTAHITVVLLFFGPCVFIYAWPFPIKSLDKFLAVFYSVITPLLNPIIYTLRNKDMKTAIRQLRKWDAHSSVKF
From the text: CRE-luciferase cAMP reporter (Dual-Glo), Hana3A cells on OR4F17

OR10G4 = molecular target: T2, OR10G4 (Homo sapiens, UniProt Q8NGN3, K295Q)
T2 construct: full-length ORF with N-terminal Rho tag, pCI, Hana3A cells with RTP1S; two clones with the same label
T2 sequence (Q8NGN3 1-311 K295Q): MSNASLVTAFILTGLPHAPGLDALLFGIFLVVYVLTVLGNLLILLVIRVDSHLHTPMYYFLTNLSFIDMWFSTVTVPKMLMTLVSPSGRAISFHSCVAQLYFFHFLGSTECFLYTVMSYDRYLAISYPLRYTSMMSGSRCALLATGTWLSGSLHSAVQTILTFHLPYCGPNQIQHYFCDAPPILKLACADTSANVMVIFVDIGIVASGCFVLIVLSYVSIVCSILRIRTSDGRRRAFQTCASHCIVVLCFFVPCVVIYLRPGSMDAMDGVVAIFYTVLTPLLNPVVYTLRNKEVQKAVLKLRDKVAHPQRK
From the text: CRE-luciferase cAMP reporter (Dual-Glo), Hana3A cells on OR10G4

OR2T1 [1] = molecular target: T3, OR2T1 (Homo sapiens, UniProt A0A126GWK9)
T3 construct: full-length ORF with N-terminal Rho tag, pCI, Hana3A cells with RTP1S; two clones with the same label
T3 sequence (A0A126GWK9 1-318): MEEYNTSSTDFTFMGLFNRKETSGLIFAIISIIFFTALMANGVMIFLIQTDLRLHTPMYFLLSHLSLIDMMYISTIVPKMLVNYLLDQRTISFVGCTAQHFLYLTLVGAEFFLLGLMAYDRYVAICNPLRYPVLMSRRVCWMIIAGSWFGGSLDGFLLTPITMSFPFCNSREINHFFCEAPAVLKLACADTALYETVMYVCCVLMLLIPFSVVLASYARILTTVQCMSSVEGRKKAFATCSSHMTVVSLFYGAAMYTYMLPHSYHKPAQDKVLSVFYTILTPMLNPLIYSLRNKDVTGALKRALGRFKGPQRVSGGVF
From the text: (§1) CRE-luciferase cAMP reporter (Dual-Glo), Hana3A cells on OR2T1

OR2T1 [2] = molecular target: T4, OR2T1 (Homo sapiens, UniProt A0A126GWK9, I76V)
T4 construct: full-length ORF with N-terminal Rho tag, pCI, Hana3A cells with RTP1S; two clones with the same label
T4 sequence (A0A126GWK9 1-318 I76V): T3 sequence (A0A126GWK9 1-318) with I76V
From the text: as §1

OR2J3 = molecular target: T5, OR2J3 (Homo sapiens, UniProt O76001)
T5 construct: full-length ORF with N-terminal Rho tag, pCI, Hana3A cells with RTP1S; four clones with the same label
T5 sequence (O76001 1-311): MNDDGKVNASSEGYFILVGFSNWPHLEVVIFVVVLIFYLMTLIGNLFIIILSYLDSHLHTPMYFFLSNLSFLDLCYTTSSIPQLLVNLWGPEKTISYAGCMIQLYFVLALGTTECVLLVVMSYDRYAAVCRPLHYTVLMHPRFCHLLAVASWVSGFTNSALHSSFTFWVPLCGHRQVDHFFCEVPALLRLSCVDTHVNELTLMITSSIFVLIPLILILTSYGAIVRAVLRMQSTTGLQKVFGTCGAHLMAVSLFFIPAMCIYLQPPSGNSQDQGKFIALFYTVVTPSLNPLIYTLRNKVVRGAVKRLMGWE
From the text: CRE-luciferase cAMP reporter (Dual-Glo), Hana3A cells on OR2J3

OR56A4 = molecular target: T6, OR56A4 (Homo sapiens, UniProt Q8NGH8)
T6 construct: full-length ORF with N-terminal Rho tag, pCI, Hana3A cells with RTP1S
T6 sequence (Q8NGH8 1-313): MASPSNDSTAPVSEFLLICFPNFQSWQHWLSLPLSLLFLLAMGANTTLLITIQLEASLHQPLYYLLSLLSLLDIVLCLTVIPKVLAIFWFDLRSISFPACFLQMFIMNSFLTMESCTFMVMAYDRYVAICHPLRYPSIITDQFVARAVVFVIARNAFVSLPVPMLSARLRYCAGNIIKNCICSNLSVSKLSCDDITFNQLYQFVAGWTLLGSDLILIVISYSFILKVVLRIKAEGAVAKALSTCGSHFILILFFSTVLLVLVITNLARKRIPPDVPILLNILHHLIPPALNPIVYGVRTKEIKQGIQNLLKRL
From the text: CRE-luciferase cAMP reporter (Dual-Glo), Hana3A cells on OR56A4

OR8D1 = molecular target: T7, OR8D1 (Homo sapiens, UniProt Q8WZ84); conditions: agonist; rounded to whole log unit
T7 construct: full-length ORF with N-terminal Rho tag, pCI, Hana3A cells with RTP1S
T7 sequence (Q8WZ84 1-308): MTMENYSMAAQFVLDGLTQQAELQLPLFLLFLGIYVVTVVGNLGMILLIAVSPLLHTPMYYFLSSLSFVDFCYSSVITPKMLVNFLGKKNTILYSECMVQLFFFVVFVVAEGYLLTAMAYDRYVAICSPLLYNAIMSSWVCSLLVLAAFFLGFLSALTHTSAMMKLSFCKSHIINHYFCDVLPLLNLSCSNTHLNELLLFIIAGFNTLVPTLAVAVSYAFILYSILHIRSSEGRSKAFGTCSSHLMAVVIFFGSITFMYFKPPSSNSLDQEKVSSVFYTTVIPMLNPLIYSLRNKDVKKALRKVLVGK
From the text: CRE-luciferase cAMP reporter (Dual-Glo), Hana3A cells on OR8D1

**Q.** `C[C@]12CCC(=O)C[C@@H]1CC[C@@H]1[C@@H]2CC[C@]2(C)C=CC[C@@H]12` [compound 1290, 5α-androst-16-en-3-one] was tested. Which EC50 (OR4F17) did it give?
**A.** 1000 µM

**Q.** Which EC50 (OR10G4) does the source give for `COc1cc(C=O)ccc1O` [compound 1346, vanillin] here?
**A.** 10 µM

**Q.** `CCCC(=O)O` [compound 1295, butyric acid] was tested. Which EC50 (OR2T1 [1]) did it give?
**A.** 100 µM

**Q.** What about the EC50 (OR2T1 [2]) of the same compound?
**A.** 100 µM

**Q.** With `CC/C=C\CCO` [compound 1300, cis-3-hexen-1-ol] as the compound, how does the EC50 (OR2J3) read?
**A.** 10 µM

**Q.** Which EC50 (OR2J3) does the source give for `CCCCCOC(C)=O` [compound 1078, n-amyl acetate] here?
**A.** 1 µM

**Q.** With `CCCCCCCCCCC=O` [compound 1345, undecanal] as the compound, how does the EC50 (OR56A4) read?
**A.** 0.1 µM

**Q.** With `CC(=O)OC/C=C(\C)CCC=C(C)C` [compound 1316, geranyl acetate] as the compound, how does the EC50 (OR2J3) read?
**A.** 1000 µM

**Q.** With caramel furanone [compound 1396] as the compound, how does the EC50 (OR8D1) read?
**A.** −5 log10 M
